Results published in PubChem BioAssay (NCI).
Where “and” joins values, the source holds several entries; their conditions need not be identical. Equal entries are not always repeated.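 Protocol summary: plate cells (96-well), add compound at 5 concentrations, incubate 48 h, interpolate endpoints linearly. The concentration for 50% growth inhibition is given as GI50. At the TGI there is no net growth.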

Key:
Assay in all cases: NCI tumour cell line growth inhibition, 48 h
M19-MEL melanoma = test system: M19-MEL melanoma
HOP-18 NSCLC = test system: HOP-18 NSCLC
DMS 114 small cell lung = test system: DMS 114 small cell lung
LXFL 529 NSCLC = test system: LXFL 529 NSCLC
XF 498 CNS = test system: XF 498 CNS
KM20L2 colon = test system: KM20L2 colon
DMS 273 small cell lung = test system: DMS 273 small cell lung
SNB-78 CNS = test system: SNB-78 CNS
RXF-631 renal = test system: RXF-631 renal
P388 leukemia = test system: P388 leukemia
P388/ADR leukemia = test system: P388/ADR leukemia

SMILES | GI50 (M19-MEL melanoma) [µM] | TGI (M19-MEL melanoma) | GI50 (HOP-18 NSCLC) [µM] | TGI (HOP-18 NSCLC) | GI50 (DMS 114 small cell lung) [nM] | TGI (DMS 114 small cell lung) | GI50 (LXFL 529 NSCLC) [nM] | TGI (LXFL 529 NSCLC) | GI50 (XF 498 CNS) [µM] | TGI (XF 498 CNS) [µM] | GI50 (KM20L2 colon) [nM] | TGI (KM20L2 colon) [µM] | TGI (DMS 273 small cell lung) [µM] | TGI (SNB-78 CNS) [µM] | TGI (RXF-631 renal) | TGI (P388 leukemia) [µM] | TGI (P388/ADR leukemia) [µM] | GI50 (P388 leukemia) [nM] | GI50 (SNB-78 CNS) [µM] | GI50 (P388/ADR leukemia) [µM]
CCC[CH2][Ge]([CH2]CCC)([CH2]CCC)[O]C(=O)CCl | 11.1 | 23.2 µM | 11.7 | 24 µM | 316 | 10.2 µM | 1980 | 17.1 µM | 8.63 | 21.1 | 2950 | 23.5 | – | – | – | – | – | – | – | –
CC1Oc2c(c(O)cc3oc(=O)cc(-c4ccccc4)c23)C(=O)C1C (stereo not drawn) | – | – | – | > 100 µM | – | – | – | > 100 µM | – | > 100 | – | > 100 | > 100 | > 100 | > 100000 nM | – | – | – | – | –
O=c1c2cc(Cl)ccc2n2nnc3ccc(NCCNCCO)c1c32 | – | 3.28 µM | – | – | – | 3.59 µM | – | 3.51 µM | – | – | – | 2.72 | 2.45 | 9.39 | 3050 nM | – | – | – | – | –
CC1=NN(C(=O)Cc2ccccc2)C(=O)/C1=C\c1cccc(O)c1 | – | > 100 µM | – | > 100 µM | – | > 100 µM | – | – | – | > 100 | – | – | > 100 | > 100 | – | – | – | – | – | –
C=C1C(=O)OC2C1CC1OC2C(C)CCC/C(C)=C\CCC1(C)O (stereo not drawn) | – | 29 µM | – | 19.7 µM | – | 33 µM | – | – | – | 38.9 | – | 81.9 | 53.1 | 42.9 | – | 42.4 | 58.2 | – | – | –
C#Cc1ccccc1C(=O)OC | – | – | – | > 100 µM | – | > 100 µM | – | – | – | > 100 | – | > 100 | > 100 | – | – | – | – | – | – | –
COc1ccc(CNc2cnc3cc(N)ccc3n2)cc1OC | – | > 100 µM | – | – | – | > 100 µM | – | – | – | – | – | – | > 100 | – | – | – | – | – | – | –
Cc1ccc(NC(=O)NC23CC4CC(CC(F)(C4)C2)C3)cc1 | – | > 100 µM | – | – | – | > 100 µM | – | > 100 µM | – | > 100 | – | > 100 | > 100 | > 100 | – | – | – | – | – | –
O=C(NNc1ccc([N+](=O)[O-])cc1)C1OC(CO)C(O)C1O (stereo not drawn) | – | > 100 µM | – | > 100 µM | – | > 100 µM | – | > 100 µM | – | > 100 | – | > 100 | > 100 | > 100 | – | – | – | – | – | –
O.O=[Se](=O)(O)O.[NH-]C1CCCCC1[NH-].[Pt+2] (stereo not drawn) | – | > 75.6 µM | > 100 | > 100 µM | – | – | – | – | – | – | – | > 100 | – | > 100 | – | 30.9 | > 100 | 433 | 48.4 | 7.22
O=C(c1ccccc1)c1ccc2c(c1)N=C(c1ccc(Cl)c(Cl)c1)CC(c1ccc3ccccc3c1)N2 (stereo not drawn) | – | > 100 µM | – | – | – | > 100 µM | – | > 100 µM | – | > 100 | – | > 100 | > 100 | > 100 | > 100000 nM | – | – | – | – | –
Nc1ncnc2c(C3OC(CO)C(O)C3O)c[nH]c12 (stereo not drawn) | – | 0.196 µM and 0.423 µM | – | 0.497 µM and 1.34 µM | – | 0.0304 µM and 0.0184 µM | – | 0.189 µM and 0.153 µM | – | 0.168 | – | 1.1 | 0.116 | 1.12 | 560 nM and 533 nM | – | – | – | – | –
COc1cccc2c1C(=O)c1c(O)c3c(c(O)c1C2=O)C[C@](O)(C(=O)CO)CC3OC1CC(N)C(OC2CCCCO2)C(C)O1 (stereo partly drawn) | – | – | – | 3 µM | – | – | – | – | – | 0.684 | – | 4.84 | 1.22 | 6.02 | – | 0.233 | > 100 | – | – | –
